Measured values reported in patent US10443026B2, “Polygonal scaffold and manufacturing method thereof, and protein modulator and manufacturing method thereof” (NATIONAL TSING HUA UNIVERSITY, priority 2017, dated 2019).
Read-outs that look alike come from different tables or passages of the source. *1 amine or outer side, *2 acyl side, *3 side chain or, on linkers, in order; H or OH if unused. Where a SMILES comes first, the peptide text is derived from it. [ ]: non-standard residue; d: D form. The star is where a group is joined. Pro(trans-4-NH2) = O=C([C@@H]1C[C@@H](N[*:3])CN1[*:1])[*:2]; X2 = CC(=O)NC1C(OCCn2cc(CCC(=O)*)nn2)OC(CO)C(O)C1O; X1 = O=C(CCCn1cc(CN[*:1])nn1)[*:2]

Target: SBA (soybean agglutinin) (Glycine max, UniProt P05046)
Assay: Surface plasmon resonance (SPR) binding to immobilized SBA
Protocol: Assay: surface plasmon resonance (SPR) experiments were performed on the Biacore T200 at 25° C. using a functionalized CM5 sensor chip. Protein immobilization was performed according to the instrument build-in wizard template. The CM5 sensor chip was activated with a solution containing N-ethyl-N′-(3-[…])-carbodiimide (EDC) (0.2 M) and N-hydroxysuccinimide (NHS) (0.05 M). HPA (10 μg/mL) in NaOAc buffer (pH 6) or SBA (10 μg/mL) in NaOAc buffer (pH 4) was injected over the activated flow cell at flow rate of 10 μL/min for 420 s. Then 1 M ethanolamine at pH 8.5 was injected to block the remaining activated groups. Binding assays were performed with HBS-P+(10 mM HEPES, 150 mM NaCI, 0.05% tween 20, pH 7.4) for HPA or 10 mM HEPES, 150 mM NaCl, 0.05% tween 20, and 100 μM CaCl2, 0.05% tween 20, pH 7.5 for SBA as running buffer. Protein modulator for test (COM1, SL4, SL5 and SL6) were injected onto the surface, with several concentrations of ranging from 6.25 nM to 100 nM for protein modulator COM1 and 10 nM to 160 nM for protein modulators SL4, SL5 and SL6 to HPA or from 62.5 nM to 1000 nM for protein modulator COM1 and 100 nM to 1600 nM for protein modulators SL4, SL5 and SL6 to SBA at the rate of 30 μL/min diluted in the running buffer. The surface was regenerated by 30 s injection of 300 mM GlcNAc for HPA or 100 mM methyl β-D-galactopyranoside for LecA. The sensorgrams were reference subtracted, quality controlled and analyzed by Biacore T200 Evaluation Software, and the kinetic parameters were obtained by fitting curves to 1:1 Langmuir model.

SBA (soybean agglutinin), sequence (P05046 33-285): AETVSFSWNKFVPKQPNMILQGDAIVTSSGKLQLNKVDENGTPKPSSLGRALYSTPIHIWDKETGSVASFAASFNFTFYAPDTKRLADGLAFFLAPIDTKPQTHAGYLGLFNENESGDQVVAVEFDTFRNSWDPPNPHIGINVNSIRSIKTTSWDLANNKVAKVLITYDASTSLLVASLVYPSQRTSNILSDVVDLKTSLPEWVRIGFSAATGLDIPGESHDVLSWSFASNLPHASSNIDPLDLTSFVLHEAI

SMILES: CC(=O)NC1C(OCCn2cc(CNC(=O)CCOCC(COCCC(=O)NCc3cn(CCOC4OC(CO)C(O)C(O)C4NC(C)=O)nn3)(COCCC(=O)NCc3cn(CCOC4OC(CO)C(O)C(O)C4NC(C)=O)nn3)NC(=O)COCCOCCN)nn2)OC(CO)C(O)C1O (stereo not shown) [COM1, reference compound]
- Kd (SPR, Biacore T200, 25° C., SBA immobilized on CM5 chip, HEPES buffer with 100 μM CaCl2 pH 7.5, 1:1 Langmuir model, read-out: KD(nM) SBA): 61.2 nM

SMILES: CC(=O)NC1C(OCCn2cc(CCC(=O)N[C@@H]3C[C@H]4C(=O)N5CCC[C@H]5C(=O)N5CCC[C@H]5C(=O)N5CCC[C@H]5C(=O)N5CCC[C@H]5C(=O)N5CCC[C@H]5C(=O)N5CCC[C@H]5C(=O)N5CCC[C@H]5C(=O)N5CCC[C@H]5C(=O)NCc5cn(nn5)CCCC(=O)N5C[C@H](NC(=O)CCc6cn(CCOC7OC(CO)C(O)C(O)C7NC(C)=O)nn6)C[C@H]5C(=O)N5CCC[C@H]5C(=O)N5CCC[C@H]5C(=O)N5CCC[C@H]5C(=O)N5CCC[C@H]5C(=O)N5CCC[C@H]5C(=O)N5CCC[C@H]5C(=O)N5CCC[C@H]5C(=O)N5CCC[C@H]5C(=O)NCc5cn(nn5)CCCC(=O)N5C[C@H](NC(=O)CCc6cn(CCOC7OC(CO)C(O)C(O)C7NC(C)=O)nn6)C[C@H]5C(=O)N5CCC[C@H]5C(=O)N5CCC[C@H]5C(=O)N5CCC[C@H]5C(=O)N5CCC[C@H]5C(=O)N5CCC[C@H]5C(=O)N5CCC[C@H]5C(=O)N5CCC[C@H]5C(=O)N5CCC[C@H]5C(=O)NCc5cn(nn5)CCCC(=O)N4C3)nn2)OC(CO)C(O)C1O (stereo partly drawn) [SL4] (cyclo(PPPPPPPP[X1][Pro(trans-4-NH2)](X2)PPPPPPPP[X1][Pro(trans-4-NH2)](X2)PPPPPPPP[X1][Pro(trans-4-NH2)](X2)))
- Kd: 98.1 nM

SMILES: CC(=O)NC1C(OCCn2cc(CCC(=O)N[C@@H]3C[C@H]4C(=O)N5CCC[C@H]5C(=O)N5CCC[C@H]5C(=O)N5CCC[C@H]5C(=O)N5CCC[C@H]5C(=O)N5CCC[C@H]5C(=O)N5CCC[C@H]5C(=O)N5CCC[C@H]5C(=O)N5CCC[C@H]5C(=O)NCc5cn(nn5)CCCC(=O)N5CCC[C@H]5C(=O)N5CCC[C@H]5C(=O)N5CCC[C@H]5C(=O)N5CCC[C@H]5C(=O)N5CCC[C@H]5C(=O)N5CCC[C@H]5C(=O)N5CCC[C@H]5C(=O)N5CCC[C@H]5C(=O)N5CCC[C@H]5C(=O)NCc5cn(nn5)CCCC(=O)N5C[C@H](NC(=O)CCc6cn(CCOC7OC(CO)C(O)C(O)C7NC(C)=O)nn6)C[C@H]5C(=O)N5CCC[C@H]5C(=O)N5CCC[C@H]5C(=O)N5CCC[C@H]5C(=O)N5CCC[C@H]5C(=O)N5CCC[C@H]5C(=O)N5C[C@H](NC(=O)CCc6cn(CCOC7OC(CO)C(O)C(O)C7NC(C)=O)nn6)C[C@H]5C(=O)N5CCC[C@H]5C(=O)N5CCC[C@H]5C(=O)NCc5cn(nn5)CCCC(=O)N4C3)nn2)OC(CO)C(O)C1O (stereo partly drawn) [SL5] (cyclo(PPPPPPPPP[X1][Pro(trans-4-NH2)](X2)PPPPP[Pro(trans-4-NH2)](X2)PP[X1][Pro(trans-4-NH2)](X2)PPPPPPPP[X1]))
- Kd: 138 nM

SMILES: CC(=O)NC1C(OCCn2cc(CCC(=O)N[C@@H]3C[C@H]4C(=O)N5CCC[C@H]5C(=O)N5CCC[C@H]5C(=O)N5C[C@H](NC(=O)CCc6cn(CCOC7OC(CO)C(O)C(O)C7NC(C)=O)nn6)C[C@H]5C(=O)N5CCC[C@H]5C(=O)N5CCC[C@H]5C(=O)N5C[C@H](NC(=O)CCc6cn(CCOC7OC(CO)C(O)C(O)C7NC(C)=O)nn6)C[C@H]5C(=O)N5CCC[C@H]5C(=O)N5CCC[C@H]5C(=O)NCc5cn(nn5)CCCC(=O)N5CCC[C@H]5C(=O)N5CCC[C@H]5C(=O)N5CCC[C@H]5C(=O)N5CCC[C@H]5C(=O)N5CCC[C@H]5C(=O)N5CCC[C@H]5C(=O)N5CCC[C@H]5C(=O)N5CCC[C@H]5C(=O)N5CCC[C@H]5C(=O)NCc5cn(nn5)CCCC(=O)N5CCC[C@H]5C(=O)N5CCC[C@H]5C(=O)N5CCC[C@H]5C(=O)N5CCC[C@H]5C(=O)N5CCC[C@H]5C(=O)N5CCC[C@H]5C(=O)N5CCC[C@H]5C(=O)N5CCC[C@H]5C(=O)N5CCC[C@H]5C(=O)NCc5cn(nn5)CCCC(=O)N4C3)nn2)OC(CO)C(O)C1O (stereo partly drawn) [SL6] (cyclo(PPPPPPPPP[X1]PPPPPPPPP[X1][Pro(trans-4-NH2)](X2)PP[Pro(trans-4-NH2)](X2)PP[Pro(trans-4-NH2)](X2)PP[X1]))
- Kd: 255 nM
